ChEMBL document CHEMBL5505979, “Novel aminothiazoximone-corbelled ethoxycarbonylpyrimidones with antibiofilm activity to conquer Gram-negative bacteria through potential multitargeting effects” (Eur J Med Chem, 2024)
≈ marks a conversion by molar mass, not a printed value. Calls of active or inactive are those of the source. No cut-off for these calls is given here.

Key:
[1] = system: Staphylococcus aureus; assay: Anti-bacterial activity against Staphylococcus aureus ATCC 6538 assessed as inhibition of bacterial growth; assay type: functional
[2] = system: Escherichia coli; assay: Anti-bacterial activity against Escherichia coli JM109 assessed as inhibition of bacterial growth; assay type: functional
[3] = system: Acinetobacter baumannii; assay: Antibiofilm activity against Acinetobacter baumannii assessed as reduction of self-aggregation; assay type: functional, organism-based
[4] = system: Escherichia coli; assay: Reduction of biofilm virulent factors in Escherichia coli ATCC 25922 assessed as decrease in extracellular polymeric substances (EPS) by measuring optical density at 490 nm at 4 times of MIC concentration by congo red binding assay (reference value: 0.028 to 0.031); assay type: functional
[5] = system: Escherichia coli; assay: Anti-bacterial activity against Escherichia coli ATCC 25922 assessed as growth inhibition by measuring optical density measured at 2 time of MIC in presence of 1/4 times of MIC of norfloxacin by Checkerboard assay (reference value: 0.128); assay type: functional
[6] = system: Escherichia coli; assay: Anti-bacterial activity against Escherichia coli ATCC 25922 assessed as growth inhibition by measuring optical density measured at 1 time of MIC in presence of 1/2 times of MIC of norfloxacin by Checkerboard assay (reference value: 0.125); assay type: functional
[7] = system: Acinetobacter baumannii; assay: Reduction in metabolic activity of Acinetobacter baumannii assessed as decrease in fluorescence intensity at 1/4 to 8 times of MIC measured after 6 hrs by resazurin sodium salt assay; assay type: functional, organism-based
[8] = system: Escherichia coli; assay: Reduction in metabolic activity of Escherichia coli ATCC 25922 at MIC concentration relative to control; assay type: functional; design: scale not given: the % may be the effect or the level left
[9] = system: Acinetobacter baumannii; assay: Reduction in metabolic activity of Acinetobacter baumannii assessed as decrease in bacterial lactate dehydrogenase activity at 0.5 to 8 times of MIC concentration; assay type: functional, organism-based

CCCCc1nc(Cl)c(C2NC(=O)NC(CN3CCN(C(=O)/C(=N/OC)c4csc(N)n4)CC3)=C2C(=O)OCC)[nH]1 (centres undefined)
MIC [1]: 7 µM (≈ 4.26 µg/mL) | MIC [2]: 13 µM (≈ 7.91 µg/mL) | Activity [3]: Dose-Dependent Effect | OD [4]: 0.061 | OD [5]: 0.102 | OD [6]: 0.096 | Activity [7]: Active | Activity [8]: 63.6% | Activity [9]: Active
